Results reported in patent US20240132521A1, “COMPOUNDS AND METHODS FOR MODULATING HER2” (Iambic Therapeutics, Inc., priority 2022, published 2024).

Assays:
Type in all cases: cell-based
BaF3_EGFRWT cells = BaF3_EGFRWT cells (Homo sapiens, UniProt P00533); test: Cell growth inhibition assay (CellTiterGlo), BaF3_EGFRWT; details: 3-day treatment, CellTiterGlo, read-out: Cell growth inhibition activity, EGFR WT
BaF3_HER2WT cells = BaF3_HER2WT cells (Homo sapiens, UniProt P04626); test: Cell growth inhibition assay (CellTiterGlo), BaF3_HER2WT; details: 3-day treatment, CellTiterGlo, read-out: Cell growth inhibition activity, HER2 WT
BaF3_HER2YVMA cells = BaF3_HER2YVMA cells (Homo sapiens, UniProt P04626, DUP772-775, cells depend on it); test: Cell growth inhibition assay (CellTiterGlo), BaF3_HER2YVMA; details: 3-day treatment, CellTiterGlo, read-out: Cell growth inhibition activity, HER2 - YVMA
Chain of BaF3_HER2YVMA cells (P04626 with tags, fused parts or gaps DUP772-775): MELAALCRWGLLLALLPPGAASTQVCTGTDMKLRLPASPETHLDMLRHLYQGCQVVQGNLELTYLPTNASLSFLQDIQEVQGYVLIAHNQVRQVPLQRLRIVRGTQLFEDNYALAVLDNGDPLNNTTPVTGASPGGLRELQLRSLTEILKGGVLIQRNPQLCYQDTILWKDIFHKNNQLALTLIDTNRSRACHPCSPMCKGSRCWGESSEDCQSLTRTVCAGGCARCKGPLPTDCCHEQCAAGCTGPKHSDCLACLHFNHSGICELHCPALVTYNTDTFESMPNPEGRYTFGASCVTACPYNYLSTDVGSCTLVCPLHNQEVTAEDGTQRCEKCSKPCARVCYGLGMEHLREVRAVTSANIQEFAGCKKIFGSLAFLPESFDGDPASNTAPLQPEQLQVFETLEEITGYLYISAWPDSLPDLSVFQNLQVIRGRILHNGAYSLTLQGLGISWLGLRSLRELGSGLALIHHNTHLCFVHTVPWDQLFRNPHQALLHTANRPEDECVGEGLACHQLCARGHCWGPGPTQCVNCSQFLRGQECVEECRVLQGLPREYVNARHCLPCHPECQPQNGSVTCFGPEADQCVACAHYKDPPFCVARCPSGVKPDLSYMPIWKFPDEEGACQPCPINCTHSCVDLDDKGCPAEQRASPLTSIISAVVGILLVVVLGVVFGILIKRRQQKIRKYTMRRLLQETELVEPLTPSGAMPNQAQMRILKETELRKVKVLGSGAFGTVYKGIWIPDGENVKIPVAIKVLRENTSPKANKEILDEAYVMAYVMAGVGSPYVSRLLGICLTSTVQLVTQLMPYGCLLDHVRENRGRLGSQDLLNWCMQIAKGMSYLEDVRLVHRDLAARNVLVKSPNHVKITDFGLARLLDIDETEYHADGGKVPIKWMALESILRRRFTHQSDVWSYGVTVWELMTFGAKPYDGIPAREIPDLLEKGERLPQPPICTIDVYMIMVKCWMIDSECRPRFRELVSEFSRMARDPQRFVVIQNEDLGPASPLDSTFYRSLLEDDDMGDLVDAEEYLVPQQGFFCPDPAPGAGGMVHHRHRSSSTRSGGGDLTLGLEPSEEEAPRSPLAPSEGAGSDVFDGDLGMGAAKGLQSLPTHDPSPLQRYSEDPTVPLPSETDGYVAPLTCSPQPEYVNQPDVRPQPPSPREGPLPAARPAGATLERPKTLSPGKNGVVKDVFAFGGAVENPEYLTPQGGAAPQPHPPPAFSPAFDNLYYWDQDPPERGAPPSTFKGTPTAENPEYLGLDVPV

Chain of BaF3_HER2WT cells (P04626 whole entry, change not shown): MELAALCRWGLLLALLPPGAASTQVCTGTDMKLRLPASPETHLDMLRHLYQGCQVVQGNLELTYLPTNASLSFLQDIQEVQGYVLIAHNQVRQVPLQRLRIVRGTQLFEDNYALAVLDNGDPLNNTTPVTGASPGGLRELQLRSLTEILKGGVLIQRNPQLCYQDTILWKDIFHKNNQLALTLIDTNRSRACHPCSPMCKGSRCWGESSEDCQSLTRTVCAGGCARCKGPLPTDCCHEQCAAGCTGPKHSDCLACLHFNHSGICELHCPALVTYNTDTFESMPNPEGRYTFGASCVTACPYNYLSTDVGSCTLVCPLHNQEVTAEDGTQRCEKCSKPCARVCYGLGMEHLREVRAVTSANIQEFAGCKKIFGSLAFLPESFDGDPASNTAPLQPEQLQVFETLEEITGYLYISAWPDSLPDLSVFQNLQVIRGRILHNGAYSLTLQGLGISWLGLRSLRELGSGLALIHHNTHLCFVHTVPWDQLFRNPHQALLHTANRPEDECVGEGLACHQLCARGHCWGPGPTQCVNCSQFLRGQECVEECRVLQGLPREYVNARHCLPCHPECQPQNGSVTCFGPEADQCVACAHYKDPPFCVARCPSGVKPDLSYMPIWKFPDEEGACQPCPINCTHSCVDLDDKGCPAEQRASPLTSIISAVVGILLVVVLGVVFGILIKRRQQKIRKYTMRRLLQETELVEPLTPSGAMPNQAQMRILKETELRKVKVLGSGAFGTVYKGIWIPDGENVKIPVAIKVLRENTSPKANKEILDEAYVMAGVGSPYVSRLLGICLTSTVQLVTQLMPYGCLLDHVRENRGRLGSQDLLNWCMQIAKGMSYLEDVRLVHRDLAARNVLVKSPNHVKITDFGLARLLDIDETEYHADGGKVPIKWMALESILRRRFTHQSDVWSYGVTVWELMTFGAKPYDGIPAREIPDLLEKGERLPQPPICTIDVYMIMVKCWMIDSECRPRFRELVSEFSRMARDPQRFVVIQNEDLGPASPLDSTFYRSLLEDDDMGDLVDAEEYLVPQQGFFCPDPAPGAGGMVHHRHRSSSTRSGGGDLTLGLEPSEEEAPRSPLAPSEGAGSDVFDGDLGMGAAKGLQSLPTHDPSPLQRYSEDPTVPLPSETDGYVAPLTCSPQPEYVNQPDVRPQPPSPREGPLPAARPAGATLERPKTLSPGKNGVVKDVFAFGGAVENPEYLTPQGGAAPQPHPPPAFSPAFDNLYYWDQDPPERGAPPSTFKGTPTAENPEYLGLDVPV
Chain of BaF3_EGFRWT cells (P00533 whole entry, change not shown): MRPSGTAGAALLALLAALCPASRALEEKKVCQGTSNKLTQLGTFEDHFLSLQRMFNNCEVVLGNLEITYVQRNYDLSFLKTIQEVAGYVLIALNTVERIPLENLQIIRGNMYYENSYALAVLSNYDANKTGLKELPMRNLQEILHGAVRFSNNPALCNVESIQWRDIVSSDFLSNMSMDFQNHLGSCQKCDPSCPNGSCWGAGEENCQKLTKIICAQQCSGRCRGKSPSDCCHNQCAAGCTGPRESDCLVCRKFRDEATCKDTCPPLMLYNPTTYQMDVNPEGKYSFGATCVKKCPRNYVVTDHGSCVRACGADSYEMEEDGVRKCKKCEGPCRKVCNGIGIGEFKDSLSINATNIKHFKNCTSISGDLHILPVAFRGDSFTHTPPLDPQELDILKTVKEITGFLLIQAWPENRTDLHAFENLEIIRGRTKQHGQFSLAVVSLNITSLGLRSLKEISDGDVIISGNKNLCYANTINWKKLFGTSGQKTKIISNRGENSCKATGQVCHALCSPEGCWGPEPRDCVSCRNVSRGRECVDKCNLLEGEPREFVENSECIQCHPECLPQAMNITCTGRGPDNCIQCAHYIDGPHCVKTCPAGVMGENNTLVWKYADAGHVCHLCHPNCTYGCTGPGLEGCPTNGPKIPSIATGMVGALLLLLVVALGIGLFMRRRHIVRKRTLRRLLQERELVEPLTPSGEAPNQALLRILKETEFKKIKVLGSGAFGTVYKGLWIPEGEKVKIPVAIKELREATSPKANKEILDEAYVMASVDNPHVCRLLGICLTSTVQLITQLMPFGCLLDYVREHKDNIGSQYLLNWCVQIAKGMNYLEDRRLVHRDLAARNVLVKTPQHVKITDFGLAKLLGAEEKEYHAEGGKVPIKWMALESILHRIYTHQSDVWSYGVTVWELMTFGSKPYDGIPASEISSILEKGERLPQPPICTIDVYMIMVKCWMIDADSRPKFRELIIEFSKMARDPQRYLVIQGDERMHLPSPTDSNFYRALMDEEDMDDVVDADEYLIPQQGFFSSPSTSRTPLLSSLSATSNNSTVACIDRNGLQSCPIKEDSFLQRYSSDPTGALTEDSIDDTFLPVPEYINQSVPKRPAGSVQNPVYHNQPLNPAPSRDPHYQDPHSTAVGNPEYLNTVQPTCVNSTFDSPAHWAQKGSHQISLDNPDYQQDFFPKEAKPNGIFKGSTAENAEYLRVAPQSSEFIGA

Row | Compound | GI50 (BaF3_EGFRWT cells) [µM] | GI50 (BaF3_HER2WT cells) [µM] | GI50 (BaF3_HER2YVMA cells) [µM]
1 | C=C(CN(C)C)C(=O)N1C2CCC1CN(c1ccn3ncnc(Nc4ccc(Oc5ccn6ncnc6c5)c(C)c4)c13)C2 [Example 48, 1-(3-(4-((4-([1,2,4]triazolo[1,5-a]pyridin-7-yloxy)-3-methylphenyl)amino)pyrrolo[2,1-f][1,2,4]triazin-5-yl)-3,8-diazabicyclo[3.2.1]octan-8-yl)-2-((dimethylamino)methyl)prop-2-en-1-one] | 1.5 to 5 | 0.2 to 0.5 | 1.5 to 5
2 | C=C(CN(C)C)C(=O)N1CC2CCC(C1)N2c1ccn2ncnc(Nc3ccc(Oc4ccn5ncnc5c4)c(C)c3)c12 [Example 49, 1-(8-(4-((4-([1,2,4]triazolo[1,5-a]pyridin-7-yloxy)-3-methylphenyl)amino)pyrrolo[2,1-f][1,2,4]triazin-5-yl)-3,8-diazabicyclo[3.2.1]octan-3-yl)-2-((dimethylamino)methyl)prop-2-en-1-one acetate] | 1.5 to 5 | < 0.2 | < 0.2
3 | C=CC(=O)N1CCC2CCC(C1)N2c1ccn2ncnc(Nc3ccc(Oc4ccn5ncnc5c4)c(C)c3)c12 (stereo not drawn) [Example 55, 1-(9-(4-((4-([1,2,4]triazolo[1,5-a]pyridin-7-yloxy)-3-methylphenyl)amino)pyrrolo[2,1-f][1,2,4]triazin-5-yl)-3,9-diazabicyclo[4.2.1]nonan-3-yl)prop-2-en-1-one] | 1.5 to 5 | < 0.2 | 0.5 to 1.5
4 | Cc1cc(Nc2ncnn3ccc(C4CCN(C(=O)/C=C/CN5CCOCC5)CC4)c23)ccc1Oc1ccn2ncnc2c1 [Example 56, (E)-1-(4-(4-((4-([1,2,4]triazolo[1,5-a]pyridin-7-yloxy)-3-methylphenyl)amino)pyrrolo[2,1-f][1,2,4]triazin-5-yl)piperidin-1-yl)-4-morpholinobut-2-en-1-one] | 1.5 to 5 | < 0.2 | < 0.2
5 | Cc1cc(Nc2ncnn3ccc(C4CCN(C(=O)/C=C/CN5CCCCC5)CC4)c23)ccc1Oc1ccn2ncnc2c1 [Example 57, (E)-1-(4-(4-((4-([1,2,4]triazolo[1,5-a]pyridin-7-yloxy)-3-methylphenyl)amino)pyrrolo[2,1-f][1,2,4]triazin-5-yl)piperidin-1-yl)-4-(piperidin-1-yl)but-2-en-1-one] | 1.5 to 5 | < 0.2 | < 0.2
6 | COC/C=C/C(=O)N1CCC(c2ccn3ncnc(Nc4ccc(Oc5ccn6ncnc6c5)c(C)c4)c23)CC1 [Example 58, (E)-1-(4-(4-((4-([1,2,4]triazolo[1,5-a]pyridin-7-yloxy)-3-methylphenyl)amino)pyrrolo[2,1-f][1,2,4]triazin-5-yl)piperidin-1-yl)-4-methoxybut-2-en-1-one] | 1.5 to 5 | < 0.2 | 0.5 to 1.5
7 | Cc1cc(Nc2ncnn3ccc(C4CN(C(=O)/C=C/CN5CCC(F)CC5)C4)c23)ccc1Oc1ccn2ncnc2c1 [Example 62, (E)-1-(3-(4-((4-([1,2,4]triazolo[1,5-a]pyridin-7-yloxy)-3-methylphenyl)amino)pyrrolo[2,1-f][1,2,4]triazin-5-yl)azetidin-1-yl)-4-(4-fluoropiperidin-1-yl)but-2-en-1-one] | 1.5 to 5 | < 0.2 | < 0.2
8 | Cc1cc(Nc2ncnn3ccc(N4CCN(C(=O)C(F)Cl)CC(F)(F)C4)c23)ccc1Oc1ccn2ncnc2c1 (stereo not drawn) [Example 63, 1-(4-(4-((4-([1,2,4]triazolo[1,5-a]pyridin-7-yloxy)-3-methylphenyl)amino)pyrrolo[2,1-f][1,2,4]triazin-5-yl)-6,6-difluoro-1,4-diazepan-1-yl)-2-chloro-2-fluoroethan-1-one] | 1.5 to 5 | 0.5 to 1.5 | 0.5 to 1.5
9 | Cc1cc(Nc2ncnn3ccc(C4CCN(C(=O)C#CCN(C)C)CC4)c23)ccc1Oc1ccn2ncnc2c1 [Example 64, 1-(4-(4-((4-([1,2,4]triazolo[1,5-a]pyridin-7-yloxy)-3-methylphenyl)amino)pyrrolo[2,1-f][1,2,4]triazin-5-yl)piperidin-1-yl)-4-(dimethylamino)but-2-yn-1-one] | 0.2 to 0.5 | < 0.2 | < 0.2
10 | Cc1cc(Nc2ncnn3ccc(C4CCN(C(=O)/C=C/C5CCCN5C)CC4)c23)ccc1Oc1ccn2ncnc2c1 (stereo not drawn) [Example 65, (E)-1-(4-(4-((4-([1,2,4]triazolo[1,5-a]pyridin-7-yloxy)-3-methylphenyl)amino)pyrrolo[2,1-f][1,2,4]triazin-5-yl)piperidin-1-yl)-3-(1-methylpyrrolidin-2-yl)prop-2-en-1-one] | 1.5 to 5 | < 0.2 | < 0.2

The next lines start with the values.

Row | GI50 (BaF3_EGFRWT cells) [µM] | GI50 (BaF3_HER2WT cells) [µM] | GI50 (BaF3_HER2YVMA cells) [µM] | Compound
11 | 1.5 to 5 | 0.2 to 0.5 | 0.5 to 1.5 | Cc1cc(Nc2ncnn3ccc(C4(O)CCN(C(=O)/C=C/CN(C)C)CC4)c23)ccc1Oc1ccn2ncnc2c1 [Example 50, (E)-1-(4-(4-((4-([1,2,4]triazolo[1,5-a]pyridin-7-yloxy)-3-methylphenyl)amino)pyrrolo[2,1-f][1,2,4]triazin-5-yl)-4-hydroxypiperidin-1-yl)-4-(dimethylamino)but-2-en-1-one]
12 | 1.5 to 5 | < 0.2 | < 0.2 | Cc1cc(Nc2ncnn3ccc(C4(O)CN(C(=O)/C=C/CN(C)C)C4)c23)ccc1Oc1ccn2ncnc2c1 [Example 51, (E)-1-(3-(4-((4-([1,2,4]triazolo[1,5-a]pyridin-7-yloxy)-3-methylphenyl)amino)pyrrolo[2,1-f][1,2,4]triazin-5-yl)-3-hydroxyazetidine-1-yl)-4-(dimethylamino)but-2-en-1-one]
13 | 1.5 to 5 | 0.2 to 0.5 | 0.5 to 1.5 | COC1(c2ccn3ncnc(Nc4ccc(Oc5ccn6ncnc6c5)c(C)c4)c23)CCN(C(=O)/C=C/CN(C)C)CC1 [Example 52, (E)-1-(4-(4-((4-([1,2,4]triazolo[1,5-a]pyridin-7-yloxy)-3-methylphenyl)amino)pyrrolo[2,1-f][1,2,4]triazin-5-yl)-4-methoxypiperidin-1-yl)-4-(dimethylamino)but-2-en-1-one]
14 | 1.5 to 5 | < 0.2 | < 0.2 | Cc1cc(Nc2ncnn3ccc(C4=CCN(C(=O)/C=C/CN(C)C)CC4)c23)ccc1Oc1ccn2ncnc2c1 [Example 53, (E)-1-(4-(4-((4-([1,2,4]triazolo[1,5-a]pyridin-7-yloxy)-3-methylphenyl)amino)pyrrolo[2,1-f][1,2,4]triazin-5-yl)-3,6-dihydropyridin-1(2H)-yl)-4-(dimethylamino)but-2-en-1-one]
15 | 1.5 to 5 | 0.5 to 1.5 | 1.5 to 5 | Cc1cc(Nc2ncnn3ccc(N4CCN(C(=O)/C=C/CN(C)C)CC4=O)c23)ccc1Oc1ccn2ncnc2c1 [Example 54, (E)-1-(4-((4-([1,2,4]triazolo[1,5-a]pyridin-7-yloxy)-3-methylphenyl)amino)pyrrolo[2,1-f][1,2,4]triazin-5-yl)-4-(4-(dimethylamino)but-2-enoyl)piperazin-2-one]
16 | 1.5 to 5 | < 0.2 | 0.2 to 0.5 | C#CCN(C)C/C=C/C(=O)N1CCC(c2ccn3ncnc(Nc4ccc(Oc5ccn6ncnc6c5)c(C)c4)c23)CC1 [Example 59, (E)-1-(4-(4-((4-([1,2,4]triazolo[1,5-a]pyridin-7-yloxy)-3-methylphenyl)amino)pyrrolo[2,1-f][1,2,4]triazin-5-yl)piperidin-1-yl)-4-(methyl(prop-2-yn-1-yl)amino)but-2-en-1-one]
